Reference: patent US8231887B2, “Pesticidal compositions” (BASF Corporation, priority 2008, dated 2012)
“And” between values parts separate entries of the source, which are not always exact repeats. Equal values may be shown once.

Experiments:
cockroaches [1] = assay: LD50 and LD10 of mineral oils and alcohols, dose-response mortality, probit analysis (Example 9); format: in vivo, Blattella germanica; details: 95% CI printed in the line below
Protocol: In this example, various mineral oils and alcohols were tested to determine, for cockroaches, the LD50 and LD10 for each.
PD23 and PD28 mineral oils were obtained from Sonneborn LLC, Mahwah, N.J. The physical properties of these oils are shown in Table 11. Each mineral oil was tested to determine the LD50 and LD10 (Table 12).
The tested alcohols were obtained from Sigma-Aldrich Corp., St. Louis, Mo. Each alcohol was tested to determine the LD50 and LD10 (Table 12).

cockroaches [2] = assay: Topical toxicity test of alcohols and/or PD23 mineral oil, dead at 24 h (Example 10); format: in vivo, Blattella germanica
Protocol: (§1) Toxicity evaluations were performed on 7-14 day old adult male and female German cockroaches (SCJ Strain, S.C. Johnson & Son, Racine, Wis.). Approximately 12 cockroaches were transferred to individual 100×20 mm polystyrene Petri dishes and anesthetized with a 15-25 second exposure to carbon dioxide. The inside edge of each Petri dish was lightly coated with mineral oil plus petroleum jelly in a 1:3 (wt/wt) ratio to minimize escape. Anesthetized cockroaches were positioned with their ventral side up, and a 1 μl drop of the diluted test composition was applied to the area between the meso- and metathoracic legs using a Rainin L-10, 10 μl capacity pipette (Rainin Instrument, LLC, Oakland, Calif.). Five replications of 12 male cockroaches were done for each test composition. Separate tests were done using female cockroaches. Results were evaluated at 24 hours following treatment. Cockroaches were scored as either alive (dorsal side up, active movement when abdomen prodded with dissecting probe) or moribund/dead (dorsal side up and no movement when abdomen prodded or ventral side up and insect unable to right itself).
The compositions comprising alcohol and/or mineral oil are described in Table 13.

cockroaches [3] = assay: 1-propanol and 1-heptanol alone and in combination with Exxsol D95 mineral oil (Example 17); format: in vivo; details: for # dead at 24 h / Proportion dead at 24 h: individual treatment; for synergy with EXXSOL D95: result in words
cockroaches (all male) = assay: Topical toxicity test of mineral oil and/or hexylene glycol, isopropyl myristate, dioxane or d-limonene in acetone (Examples 3-6); format: in vivo, Blattella germanica; details: 24 hours; for # dead: 1 μl topical, remainder acetone
Protocol: as §1, with “itself). […]” for “itself).”
Tests were generally performed as described in Example 1, except the number of cockroaches (all male) tested for each composition is set forth below in Table 6, and the compositions were not further diluted with acetone in a 1:1 (wt/wt) ratio prior to testing. The results are shown in Table 6, which lists the number of cockroaches tested for each composition, the number of dead cockroaches out of the total number of cockroaches tested, the square root percent dead cockroaches, the proportion of dead cockroaches, and the arcsine square root percent dead cockroaches.
Tests were generally performed as described in Example 1, except the number of cockroaches (all male) tested for each composition is set forth below in Table 7, and the compositions were not further diluted with acetone in a 1:1 (wt/wt) ratio prior to testing. The results are shown in Table 7, which lists the number of cockroaches tested for each composition, the number of dead cockroaches out of the total number of cockroaches tested, the square root percent dead cockroaches, the proportion of dead cockroaches, and the arcsine square root percent dead cockroaches.

[4] = Table 14, composite data of the replicates
[5] = Table 14, composite data, calculated proportion

In the case of 1-butanol [Composition 1-butanol], the LD10 mg/insect (cockroaches [1]) is reported as 0.877 mg/insect, the LD50 mg/insect (cockroaches [1]) is reported as 1.018 mg/insect and the “# dead at 24 h” value (cockroaches [2]; Table 13, per replicate of 10-16 treated cockroaches, mg per insect in the label, listed as 1-butanol (0.8 mg)) is reported as 0 (2×) and 1. The “Proportion dead at 24 h” value (cockroaches [2]; Table 13, per replicate, listed as 1-butanol (0.8 mg)) was 0.000 (2×) and 0.100, the “# dead at 24 h” value (cockroaches [2]; [4]) was 1 and the “Proportion dead at 24 h” value (cockroaches [2]; [5]) was 0.029.
1-propanol [Composition 1-propanol] was tested, and the LD10 mg/insect (cockroaches [1]) was 0.472 mg/insect, the LD50 mg/insect (cockroaches [1]) was 0.557 mg/insect and the “# dead at 24 h” value (cockroaches [2]; Table 13, per replicate of 10-16 treated cockroaches, mg per insect in the label, listed as 1-propanol (0.45 mg)) was 1 and 0 (2×). The “Proportion dead at 24 h” value (cockroaches [2]; Table 13, per replicate, listed as 1-propanol (0.45 mg)) was 0.083 and 0.000 (2×), the “# dead at 24 h” value (cockroaches [2]; [4]) was 1 and the “Proportion dead at 24 h” value (cockroaches [2]; [5]) was 0.028. For the same compound, the “# dead at 24 h” value (cockroaches [3]; 0.45 mg) was 1, the “Proportion dead at 24 h” value (cockroaches [3]; 0.45 mg) was 0.028 and the “synergy with EXXSOL D95” value (cockroaches [3]) was “significant synergy”.
2-butanol [Composition 2-butanol] was tested, and the LD10 mg/insect (cockroaches [1]) was 0.881 mg/insect, the LD50 mg/insect (cockroaches [1]) was 1.188 mg/insect and the “# dead at 24 h” value (cockroaches [2]; Table 13, per replicate of 10-16 treated cockroaches, mg per insect in the label, listed as 2-butanol (0.8 mg)) was 0 (2×) and 1. For the same compound, the “Proportion dead at 24 h” value (cockroaches [2]; Table 13, per replicate, listed as 2-butanol (0.8 mg)) was 0.000 (2×) and 0.083, the “# dead at 24 h” value (cockroaches [2]; [4]) was 1 and the “Proportion dead at 24 h” value (cockroaches [2]; [5]) was 0.026.
`OCCc1ccccc1` [2-phenylethanol] was tested, and the LD10 mg/insect (cockroaches [1]) was 0.075 mg/insect, the “# dead at 24 h” value (cockroaches [2]; [4]) was 5 and the “Proportion dead at 24 h” value (cockroaches [2]; [5]) was 0.106.
`CCCCCCCO` [Composition 1-heptanol, 1-heptanol] was tested, and the “# dead at 24 h” value (cockroaches [2]; [4]) was 1, the “Proportion dead at 24 h” value (cockroaches [2]; [5]) was 0.028 and the “# dead at 24 h” value (cockroaches [3]; 0.40 mg) was 1. For the same compound, the “Proportion dead at 24 h” value (cockroaches [3]; 0.40 mg) was 0.028 and the “synergy with EXXSOL D95” value (cockroaches [3]) was “significant synergy”.
In the case of `C1COCCO1` [Dioxane (50%), Dioxane], the “# dead” value (cockroaches (all male); Table 6, per replicate) is reported as 0 (4×) and 1, the “Arcsine square root % dead” value (cockroaches (all male); Table 6, per replicate) is reported as 0 and the Proportion dead (cockroaches (all male); Table 6, per replicate) is reported as 0. For the same compound, the “Square root % dead” value (cockroaches (all male); Table 6, per replicate) was 0.
With `CO` [Methanol] the LD10 mg/insect (cockroaches [1]) was “Estimated at ~3.000 mg/insect”, the LD50 mg/insect (cockroaches [1]) was >7.00 mg/insect and the “# dead at 24 h” value (cockroaches [2]; Table 13, per replicate of 10-16 treated cockroaches, mg per insect in the label, listed as methanol (3.0 mg)) was 0 (2×) and 1. For the same compound, the “Proportion dead at 24 h” value (cockroaches [2]; Table 13, per replicate, listed as methanol (3.0 mg)) was 0.000 (2×) and 0.077, the “# dead at 24 h” value (cockroaches [2]; [4]) was 1 and the “Proportion dead at 24 h” value (cockroaches [2]; [5]) was 0.026.
`C=C(C)[C@H]1CC=C(C)CC1` [d-limonene (40%), d-limonene] was tested, and the “# dead” value (cockroaches (all male); Table 7, per replicate) was 1 and 0 and 2 (2×), the “Arcsine square root % dead” value (cockroaches (all male); Table 7, per replicate) was 0 and the Proportion dead (cockroaches (all male); Table 7, per replicate) was 0. The “Square root % dead” value (cockroaches (all male); Table 7, per replicate) was 0.
`CC(C)CO` [isobutyl alcohol] was tested, and the “# dead at 24 h” value (cockroaches [2]; Table 13, per replicate of 10-16 treated cockroaches, mg per insect in the label, listed as isobutyl alcohol (0.50 mg)) was 1, the “Proportion dead at 24 h” value (cockroaches [2]; Table 13, per replicate, listed as isobutyl alcohol (0.50 mg)) was 0.071 and the “# dead at 24 h” value (cockroaches [2]; [4]) was 1. The “Proportion dead at 24 h” value (cockroaches [2]; [5]) was 0.026.
For `CC(C)(C)O` [tertiary butyl alcohol], the “# dead at 24 h” value (cockroaches [2]; Table 13, per replicate of 10-16 treated cockroaches, mg per insect in the label, listed as t-butyl alcohol (0.5 mg)) was 0 (3×) and 2, the “Proportion dead at 24 h” value (cockroaches [2]; Table 13, per replicate, listed as t-butyl alcohol (0.5 mg)) was 0.000 and the “# dead at 24 h” value (cockroaches [2]; [4]) was 2. For the same compound, the “Proportion dead at 24 h” value (cockroaches [2]; [5]) was 0.045.
